According to patent US20200325449A1, “COMPLEMENT INHIBITION FOR IMPROVING CELL VIABILITY” (THE CLEVELAND CLINIC FOUNDATION, priority 2016, published 2020):
Entries after “also recorded” stand apart in the source; their conditions may differ.

What was measured:
MSCs [1] = test: In vitro damage of MSCs (BCECF release) after contact with serum; assay type: cell-based; conditions: MSCs cultured with Neu5AC (lower Neu5GC levels) vs without; 20% or 30% normal human serum
Procedure: Measurement of in vitro damage of MSCs. An established fluorescence dye release assay was used to assess MSC injury after contact with serum. In brief, 2×10^5 heparin-painted or mock-painted MSCs were first loaded by incubation for 30 min at 37° C. with 5 μM 2′,7′-bis-(2-carboxyethyl)-5-(and-6)-carboxyfluorescein acetoxymethyl ester (BCECF-AM) (Thermo Fisher Scientific™, Grand Island, N.Y.). After 3 washes, the BCECF-loaded MSCs were incubated for 30 min at 37° C. with 20 or 30% normal human serum in 100 μL of GVB++, then the cells were removed by centrifugation and released BCECF in the supernatant measured on a SpectraMax Gemini XS (Molecular Devices, Sunnyvale, Calif.) with excitation and emission wavelengths, respectively, of 485 nm and 538 nm. The MSC damage (percentage of BCECF release) was calculated as ([A−B]/[C−B])×100%, where A represents the mean experimental BCECF release, B the mean spontaneous BCECF release, and C the mean maximum BCECF release induced by incubating the cells with 0.1% Triton-X100.

[2] = tested on: human IgGs and IgMs on MSCs; test: MSC serum immunoglobulin binding assay; assay type: cell-based; conditions: MSCs cultured with Neu5AC, then pooled normal human serum
Procedure: MSC serum immunoglobulin binding assay. MSCs (0.5×10^6) cultured in the presence or absence of 3 mM of Neu5AC for a week were incubated for 30 min on ice with 30% pooled normal human serum in PBS. After washing, the cells were stained for cell surface-bound human IgGs and IgMs with 2 μg/ml of anti-human IgG or anti-human IgM antibodies (Jackson ImmunoResearch Laboratories, West Grove, Pa.) and examined by flow cytometry.

Neu5GC on MSCs = test: Neu5GC detection on MSCs; assay type: cell-based, human; conditions: MSCs cultured 7 days with Neu5AC in complete medium vs without
Procedure: Neu5GC detection on MSCs. This was performed as described previously by Ghaderi et al. In brief, after blocking with a 0.5% solution of fish skin gelatin (Sigma-Aldrich, St. Louis, Mo.), MSCs were incubated for 30 min on ice with 5 μg/ml of chicken anti-Neu5GC IgY or control IgY, then were washed, stained with 5 μg/ml of fluorescein isothiocyanate (FITC)-labeled anti-IgY antibody (Jackson ImmunoResearch Laboratories, West Grove, Pa.), and analyzed on a flow cytometer (BD FACSCalibur, San Jose, Calif.).

[3] = tested on: complement classical pathway; test: Complement classical pathway activation ex vivo assay (EshA C3b deposition); assay type: in vivo; conditions: plasma of WT C57BL/6 mice 30 min after s.c. heparin 20 U/mouse vs saline
Procedure: (§1) Complement alternative pathway and classical pathway activation ex vivo assays. Mice were injected subcutaneously (s.c.) with 20 U of heparin (MP Biomedicals, Solon, Ohio) in saline or saline alone, then blood samples were collected 30 min later and immediately centrifuged for 5 min at 4° C. to collect the plasma. The activity of the complement alternative pathway was assessed using a zymosan C3b deposition assay and complement classical pathway activity was measured using an antibody-sensitized sheep erythrocytes (EshA) C3b deposition assay.

[4] = tested on: complement alternative pathway; test: Complement alternative pathway activation ex vivo assay (zymosan C3b deposition); assay type: in vivo; conditions: plasma of WT C57BL/6 mice 30 min after s.c. heparin 20 U/mouse vs saline
Procedure: as §1

MSCs [5] = test: In vivo damage of MSCs (BCECF release in plasma); design: species or system mice; conditions: BCECF-labeled MSCs infused via tail vein 10 min after s.c. heparin vs saline
Procedure: Measurement of in vivo damage of MSCs. In vivo MSC damage after infusion was also examined using a BCECF release assay. In brief, each mouse was injected subcutaneously with 500 U of heparin in saline or saline alone, then 1×10^6 MSCs labeled with BCECF were injected by the tail vein, then blood samples were collected after 0, 20, 40, and 60 min and released BCECF in the plasma measured on a SpectraMax Gemini XS (Molecular Devices, Sunnyvale, Calif.) as above.
To evaluate in vivo damage to MSCs with or without heparin painting, 0.5×10^6 heparin-painted or mock-painted MSCs were labeled with BCECF, then injected into the tail vein and blood sample collected and the plasma assayed for levels of released BCECF as above.

C3aR on neutrophils = biological target: T1, C3aR on neutrophils (Homo sapiens, UniProt Q16581); test: Neutrophil- and NHS-mediated MSC damage assay with C3aR antagonist; assay type: cell-based; conditions: HL60-derived neutrophils plus 30% NHS; antagonist alone, 10 μM
T1 construct: endogenous in cells; host or cells: human neutrophils from donor blood or differentiated from HL-60 cells
T1 sequence (Q16581 1-482): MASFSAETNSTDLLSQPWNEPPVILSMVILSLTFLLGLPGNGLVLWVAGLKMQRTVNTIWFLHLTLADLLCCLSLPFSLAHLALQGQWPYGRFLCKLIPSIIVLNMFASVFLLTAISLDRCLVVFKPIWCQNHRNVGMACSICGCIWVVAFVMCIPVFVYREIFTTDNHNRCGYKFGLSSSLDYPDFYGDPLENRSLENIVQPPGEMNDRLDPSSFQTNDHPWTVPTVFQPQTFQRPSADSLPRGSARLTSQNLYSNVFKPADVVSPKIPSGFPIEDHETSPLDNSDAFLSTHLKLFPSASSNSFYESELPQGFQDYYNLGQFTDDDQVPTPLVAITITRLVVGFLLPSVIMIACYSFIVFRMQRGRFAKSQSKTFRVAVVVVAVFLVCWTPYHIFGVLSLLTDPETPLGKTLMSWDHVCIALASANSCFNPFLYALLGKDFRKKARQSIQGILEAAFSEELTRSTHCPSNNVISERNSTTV
Procedure: Neutrophil-mediated MSC damage assay. Human neutrophils, either purified from healthy donor peripheral blood mononuclear cells (PBMCs) by Ficoll centrifugation (provided by the Hematopoietic Stem Cells Core Facility at Case Western Reserve University) or differentiated from the neutrophil progenitor cell line HL-60 (ATCC), were used. Collins et al., Proc Natl Acad Sci USA. 1978; 75:2458-62. In some experiments, neutrophil-mediated MSC damage was assessed using a similar BCECF-based assay to that already described. In brief, 2×10^4 MSCs were labeled with BCECF-AM as described above, then, after washing, the labeled MSC were incubated for 30 min at 37° C. with different numbers of neutrophils in the presence or absence of 30% NHS in 100 μl of GVB++ buffer with various concentrations of the neutrophil function inhibitor wortmannin that inhibits oxidative burst (Sue-A-Quan et al., Journal of cellular physiology. 1997; 172:94-108) (Cayman Chemical, Ann Arbor, Mich.) and released BCECF in the supernatants was measured as described. The percentage BCECF release (cell injury) was calculated as above. […]

primary neutrophils = test: Primary neutrophil-mediated MSC damage with purified C5a; assay type: cell-based; conditions: purified human C5a 50 ng/ml, no NHS, 4 h
Procedure: Neutrophil-mediated MSC damage assay. Human neutrophils, either purified from healthy donor peripheral blood mononuclear cells (PBMCs) by Ficoll centrifugation (provided by the Hematopoietic Stem Cells Core Facility at Case Western Reserve University) or differentiated from the neutrophil progenitor cell line HL-60 (ATCC), were used. Collins et al., Proc Natl Acad Sci USA. 1978; 75:2458-62. In some experiments, neutrophil-mediated MSC damage was assessed using a similar BCECF-based assay to that already described. In brief, 2×10^4 MSCs were labeled with BCECF-AM as described above, then, after washing, […] neutrophils in the presence or absence of 30% NHS in 100 μl of GVB++ buffer with various concentrations of the neutrophil function inhibitor wortmannin that inhibits oxidative burst (Sue-A-Quan et al., Journal of cellular physiology. 1997; 172:94-108) (Cayman Chemical, Ann Arbor, Mich.) and released BCECF in the supernatants was measured as described. The percentage BCECF release (cell injury) was calculated as above. In some experiments, a C5aR antagonist (JPE1375, Calbiochem, Billerica, Mass.)[27] or a C3aR antagonist (SB 290157, Calbiochem, Billerica, Mass.)[28] were added, both at […], to assess the role of C3aR and C5aR on neutrophils, while, in other experiments, NHS was omitted and 50 ng/ml of purified C5a (Complement technology Inc, Tyler, Tex.) added instead.

neutrophils = conditions: Ehrengruber et al. 1994; cited from earlier work

CC(=O)N[C@H]1[C@H]([C@H](O)[C@H](O)CO)OC(O)(C(=O)O)C[C@@H]1O (stereo partly drawn) [Neu5AC, N-acetylneuraminic acid]
complement-mediated MSC injury (MSCs [1]): less complement-mediated injury; also recorded: moderate reduction | amount of bound IgM and IgG on MSCs [2]: decrease | Neu5GC levels on the MSC surface (Neu5GC on MSCs): significantly reduced

heparin
C3 deposition on the surface of EshA (classical pathway) [3]: markedly reduced | C3 deposition on the surface of zymosan (alternative pathway) [4]: markedly reduced | in vivo MSC cell damage (released BCECF in the plasma) (MSCs [5]): protected

NC(N)=NCCC[C@H](NC(=O)COCC(c1ccccc1)c1ccccc1)C(=O)O [C3aR antagonist]
neutrophil-mediated MSC damage (BCECF release) (C3aR on neutrophils): no appreciable effect

B1: C5a: purified human C5a, anaphylatoxin (Complement technology Inc) (protein, UniProt P01031 678-751, looked up)
C5a anaphylatoxin: TLQKKIEEIAAKYKHSVVKKCCYDGACVNNDETCEQRAARISLGPRCIKAFTECCVVASQLRANISHKDMQLGR
modifications: C5a anaphylatoxin
MSC damage by primary neutrophils (primary neutrophils): significant MSC damage | potency in activating neutrophils relative to C3a (neutrophils): 50-100 times
